Legend:
radish, wild = assay: Test D postemergence; type: in vivo, Raphanus raphanistrum; conditions: scale 0 to 100
Description: (§1) Seeds of plant species selected from bluegrass (annual bluegrass, Poa annua), blackgrass (Alopecurus myosuroides), canarygrass (littleseed canarygrass, Phalaris minor), chickweed (common chickweed, Stellaria media), galium (catchweed bedstraw, Galium aparine), bromegrass, downy (downy bromegrass, Bromus tectorum), field poppy (Papaver rhoeas), field violet (Viola arvensis), foxtail, green (green foxtail, Setaria viridis), deadnettle (henbit deadnettle, Lamium amplexicaule), ryegrass, Italian (Italian ryegrass, Lolium multiflorum), kochia (Kochia scoparia), lambsquarters (Chenopodium album), oilseed rape (Brassica napus), pigweed (redroot pigweed, Amaranthus retroflexus), chamomile (scentless chamomile, Matricaria inodora), speedwell (bird's-eye speedwell, Veronica persica), barley, spring (spring barley, Hordeum vulgare), wheat, spring (spring wheat, Triticum aestivum), buckwheat, wild (wild buckwheat, Polygonum convolvulus), mustard, wild (wild mustard, Sinapis arvensis), oat, wild (wild oat, Avena fatua), radish, wild (wild radish, Raphanus raphanistrum), windgrass (Apera spica-venti), Russian thistle (Salsola kali), barley, winter (winter barley, Hordeum vulgare), and wheat, winter (winter wheat, Triticum aestivum) were planted into a silt loam soil and treated preemergence with test chemicals formulated in a non-phytotoxic solvent mixture which included a surfactant.
(§2) At the same time, these species were planted in pots containing Redi-Earth® planting medium (Scotts Company, 14111 Scottslawn Road, Marysville, Ohio 43041) comprising spaghnum peat moss, vermiculite, wetting agent and starter nutrients and treated with postemergence applications of the test chemicals formulated in the same manner. Plants ranged in height from 2 to 18 cm (1- to 4-leaf stage). Treated plants and controls were maintained in a controlled growth environment for 14 to 21 days after which time all species were compared to controls and visually evaluated. Plant response ratings, summarized in Table D, are based on a scale of 0 to 100 where 0 is no effect and 100 is complete control. A dash (-) response means no test result.

deadnettle [1] = assay: Test D postemergence; type: in vivo, Lamium amplexicaule; conditions: scale 0 to 100; for Plant response rating, Deadnettle: 16 g ai/ha
Description: as §1, §2

bromegrass, downy = assay: Test D postemergence; type: in vivo, Bromus tectorum; conditions: scale 0 to 100; for Plant response rating, Bromegrass, Downy: 16 g ai/ha
Description: as §1, §2

buckwheat, wild [2] = assay: Test D postemergence; type: in vivo, Polygonum convolvulus; conditions: scale 0 to 100; for Plant response rating, Buckwheat, Wild: 16 g ai/ha
Description: as §1, §2

buckwheat, wild [3] = assay: Test D preemergence; type: in vivo, Polygonum convolvulus; conditions: for Plant response rating (scale 0 to 100), Buckwheat, Wild: 16 g ai/ha, taken as preemergence; for Plant response rating, Buckwheat, Wild: Preemergence, scale 0 to 100
Description: as §1, §2

pigweed = assay: Test D postemergence; type: in vivo, Amaranthus retroflexus; conditions: scale 0 to 100; for Plant response rating, Pigweed: 16 g ai/ha
Description: as §1, §2

field poppy = assay: Test D postemergence; type: in vivo, Papaver rhoeas; conditions: scale 0 to 100; for Plant response rating, Field Poppy: 16 g ai/ha
Description: as §1, §2

windgrass [4] = assay: Test D postemergence; type: in vivo, Apera spica-venti; conditions: scale 0 to 100; for Plant response rating, Windgrass: 16 g ai/ha
Description: as §1, §2

windgrass [5] = assay: Test D preemergence; type: in vivo, Apera spica-venti; conditions: for Plant response rating (scale 0 to 100), Windgrass: 16 g ai/ha, taken as preemergence; for Plant response rating, Windgrass: Preemergence, scale 0 to 100
Description: as §1, §2

deadnettle [6] = assay: Test D preemergence; type: in vivo, Lamium amplexicaule; conditions: for Plant response rating (scale 0 to 100), Deadnettle: 16 g ai/ha, taken as preemergence; for Plant response rating, Deadnettle: Preemergence, scale 0 to 100
Description: as §1, §2

mustard, wild = assay: Test D postemergence; type: in vivo, Sinapis arvensis; conditions: scale 0 to 100; for Plant response rating, Mustard, Wild: 16 g ai/ha
Description: as §1, §2

chickweed = assay: Test D preemergence; type: in vivo, Stellaria media; conditions: for Plant response rating, Chickweed: Preemergence, scale 0 to 100
Description: as §1, §2

CCc1cc(C(=O)NC2CC2)nn1Cc1ccnc(C(F)(F)F)c1 [Compound 76]
Plant response rating, Radish, Wild (radish, wild; Postemergence, 16 g ai/ha): 5
Radish, Wild plant response rating (radish, wild; Postemergence, 31 g ai/ha): 10
Radish, Wild plant response rating (radish, wild; Postemergence, 125 g ai/ha): 70
Radish, Wild plant response rating (radish, wild; Postemergence, 250 g ai/ha): 65
Radish, Wild plant response rating (radish, wild; postemergence, 62 g ai/ha): 20
Plant response rating, Deadnettle (deadnettle [1]; Postemergence): 15
Deadnettle plant response rating (deadnettle [1]; Postemergence, 31 g ai/ha): 25
Deadnettle plant response rating (deadnettle [1]; Postemergence, 125 g ai/ha): 50
Deadnettle plant response rating (deadnettle [1]; Postemergence, 250 g ai/ha): 70
Deadnettle plant response rating (deadnettle [1]; postemergence, 62 g ai/ha): 40
Plant response rating, Bromegrass, Downy (bromegrass, downy; Postemergence): 0
Bromegrass, Downy plant response rating (bromegrass, downy; Postemergence, 31 g ai/ha): 0
Bromegrass, Downy plant response rating (bromegrass, downy; Postemergence, 125 g ai/ha): 10
Bromegrass, Downy plant response rating (bromegrass, downy; Postemergence, 250 g ai/ha): 15
Bromegrass, Downy plant response rating (bromegrass, downy; postemergence, 62 g ai/ha): 5
Plant response rating, Buckwheat, Wild (buckwheat, wild [2]; Postemergence): 50
Buckwheat, Wild plant response rating (buckwheat, wild [2]; Postemergence, 31 g ai/ha): 55
Buckwheat, Wild plant response rating (buckwheat, wild [2]; Postemergence, 125 g ai/ha): 60
Buckwheat, Wild plant response rating (buckwheat, wild [2]; Postemergence, 250 g ai/ha): 100
Buckwheat, Wild plant response rating (buckwheat, wild [2]; postemergence, 62 g ai/ha): 50
Plant response rating (scale 0 to 100), Buckwheat, Wild (buckwheat, wild [3]): 0
Plant response rating, Buckwheat, Wild (buckwheat, wild [3]; 31 g ai/ha): 20
Plant response rating, Buckwheat, Wild (buckwheat, wild [3]; 62 g ai/ha): 70
Plant response rating, Buckwheat, Wild (buckwheat, wild [3]; 125 g ai/ha): 100
Plant response rating, Buckwheat, Wild (buckwheat, wild [3]; 250 g ai/ha): 100
Plant response rating, Pigweed (pigweed; Postemergence): 50
Pigweed plant response rating (pigweed; Postemergence, 31 g ai/ha): 55
Pigweed plant response rating (pigweed; Postemergence, 125 g ai/ha): 80
Pigweed plant response rating (pigweed; Postemergence, 250 g ai/ha): 80
Pigweed plant response rating (pigweed; postemergence, 62 g ai/ha): 65
Plant response rating, Field Poppy (field poppy; Postemergence): 60
Field Poppy plant response rating (field poppy; Postemergence, 31 g ai/ha): 65
Field Poppy plant response rating (field poppy; Postemergence, 125 g ai/ha): 85
Field Poppy plant response rating (field poppy; Postemergence, 250 g ai/ha): 90
Field Poppy plant response rating (field poppy; postemergence, 62 g ai/ha): 70
Plant response rating, Windgrass (windgrass [4]; Postemergence): 5
Windgrass plant response rating (windgrass [4]; Postemergence, 31 g ai/ha): 5
Windgrass plant response rating (windgrass [4]; Postemergence, 125 g ai/ha): 10
Windgrass plant response rating (windgrass [4]; Postemergence, 250 g ai/ha): 15
Windgrass plant response rating (windgrass [4]; postemergence, 62 g ai/ha): 10
Plant response rating (scale 0 to 100), Windgrass (windgrass [5]): 5
Plant response rating, Windgrass (windgrass [5]; 31 g ai/ha): 15
Plant response rating, Windgrass (windgrass [5]; 62 g ai/ha): 65
Plant response rating, Windgrass (windgrass [5]; 125 g ai/ha): 80
Plant response rating, Windgrass (windgrass [5]; 250 g ai/ha): 100
Plant response rating (scale 0 to 100), Deadnettle (deadnettle [6]): 0
Plant response rating, Deadnettle (deadnettle [6]; 31 g ai/ha): 50
Plant response rating, Deadnettle (deadnettle [6]; 62 g ai/ha): 100
Plant response rating, Deadnettle (deadnettle [6]; 125 g ai/ha): 100
Plant response rating, Deadnettle (deadnettle [6]; 250 g ai/ha): 100
Plant response rating, Mustard, Wild (mustard, wild; Postemergence): 10
Mustard, Wild plant response rating (mustard, wild; Postemergence, 31 g ai/ha): 40
Mustard, Wild plant response rating (mustard, wild; Postemergence, 125 g ai/ha): 100
Mustard, Wild plant response rating (mustard, wild; Postemergence, 250 g ai/ha): 100
Mustard, Wild plant response rating (mustard, wild; postemergence, 62 g ai/ha): 70

Cc1cc(C(=O)NCC(F)(F)F)nn1Cc1ccnc(C(F)(F)F)c1 [Compound 74]
Plant response rating (scale 0 to 100), Chickweed (chickweed; 16 g ai/ha, taken as preemergence): 20
Plant response rating, Chickweed (chickweed; 31 g ai/ha): 70
Plant response rating, Chickweed (chickweed; 62 g ai/ha): 100
Plant response rating, Chickweed (chickweed; 125 g ai/ha): 100
Plant response rating, Deadnettle (deadnettle [1]; Postemergence): 10
Deadnettle plant response rating (deadnettle [1]; Postemergence, 31 g ai/ha): 15
Deadnettle plant response rating (deadnettle [1]; Postemergence, 125 g ai/ha): 30
Deadnettle plant response rating (deadnettle [1]; postemergence, 62 g ai/ha): 20
Plant response rating, Bromegrass, Downy (bromegrass, downy; Postemergence): 0
Bromegrass, Downy plant response rating (bromegrass, downy; Postemergence, 31 g ai/ha): 0
Bromegrass, Downy plant response rating (bromegrass, downy; Postemergence, 125 g ai/ha): 0
Bromegrass, Downy plant response rating (bromegrass, downy; postemergence, 62 g ai/ha): 0
Plant response rating, Buckwheat, Wild (buckwheat, wild [2]; Postemergence): 60
Buckwheat, Wild plant response rating (buckwheat, wild [2]; Postemergence, 31 g ai/ha): 60
Buckwheat, Wild plant response rating (buckwheat, wild [2]; Postemergence, 125 g ai/ha): 65
Buckwheat, Wild plant response rating (buckwheat, wild [2]; postemergence, 62 g ai/ha): 45
Plant response rating (scale 0 to 100), Buckwheat, Wild (buckwheat, wild [3]): 25
Plant response rating, Buckwheat, Wild (buckwheat, wild [3]; 31 g ai/ha): 35
Plant response rating, Buckwheat, Wild (buckwheat, wild [3]; 62 g ai/ha): 45
Plant response rating, Buckwheat, Wild (buckwheat, wild [3]; 125 g ai/ha): 65
Plant response rating, Pigweed (pigweed; Postemergence): 65
Pigweed plant response rating (pigweed; Postemergence, 31 g ai/ha): 50
Pigweed plant response rating (pigweed; Postemergence, 125 g ai/ha): 65
Pigweed plant response rating (pigweed; postemergence, 62 g ai/ha): 65
Plant response rating, Field Poppy (field poppy; Postemergence): 10
Field Poppy plant response rating (field poppy; Postemergence, 31 g ai/ha): 75
Field Poppy plant response rating (field poppy; Postemergence, 125 g ai/ha): 20
Field Poppy plant response rating (field poppy; postemergence, 62 g ai/ha): 30
Plant response rating, Windgrass (windgrass [4]; Postemergence): 0
Windgrass plant response rating (windgrass [4]; Postemergence, 31 g ai/ha): 0
Windgrass plant response rating (windgrass [4]; Postemergence, 125 g ai/ha): 5
Windgrass plant response rating (windgrass [4]; postemergence, 62 g ai/ha): 0
Plant response rating (scale 0 to 100), Windgrass (windgrass [5]): 0
Plant response rating, Windgrass (windgrass [5]; 31 g ai/ha): 0
Plant response rating, Windgrass (windgrass [5]; 62 g ai/ha): 25
Plant response rating, Windgrass (windgrass [5]; 125 g ai/ha): 35
Plant response rating (scale 0 to 100), Deadnettle (deadnettle [6]): 0
Plant response rating, Deadnettle (deadnettle [6]; 31 g ai/ha): 5
Plant response rating, Deadnettle (deadnettle [6]; 62 g ai/ha): 10
Plant response rating, Deadnettle (deadnettle [6]; 125 g ai/ha): 20
Plant response rating, Mustard, Wild (mustard, wild; Postemergence): 20
Mustard, Wild plant response rating (mustard, wild; Postemergence, 31 g ai/ha): 30
Mustard, Wild plant response rating (mustard, wild; Postemergence, 125 g ai/ha): 55
Mustard, Wild plant response rating (mustard, wild; postemergence, 62 g ai/ha): 30
